According to PubChem BioAssay (NCI):
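Briefly, cells in 96-well plates were exposed to five compound concentrations for 48 h, and endpoints were estimated by linear interpolation. TGI marks complete inhibition of growth.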

How the values were obtained:
Assay in all cases: DTP human tumour cell line panel, 48 h
SF-539 CNS = system: SF-539 CNS
A549 NSCLC = system: A549 NSCLC
U251 CNS = system: U251 CNS
NCI-H226 lung = system: NCI-H226 lung
HOP-62 NSCLC = system: HOP-62 NSCLC
UO-31 renal = system: UO-31 renal
RXF 393 renal = system: RXF 393 renal
OVCAR-5 ovarian = system: OVCAR-5 ovarian
MOLT-4 leukemia = system: MOLT-4 leukemia
UACC-62 melanoma = system: UACC-62 melanoma
IGROV1 ovarian = system: IGROV1 ovarian
786-0 renal = system: 786-0 renal
MDA-MB-435 = system: MDA-MB-435
NCI-H460 lung = system: NCI-H460 lung
MALME-3M melanoma = system: MALME-3M melanoma
SR leukemia = system: SR leukemia
OVCAR-3 ovarian = system: OVCAR-3 ovarian
SK-MEL-2 melanoma = system: SK-MEL-2 melanoma
CAKI-1 renal = system: CAKI-1 renal
HOP-92 NSCLC = system: HOP-92 NSCLC
NCI-H23 lung = system: NCI-H23 lung
M14 melanoma = system: M14 melanoma
SF-268 CNS = system: SF-268 CNS
SK-MEL-28 melanoma = system: SK-MEL-28 melanoma
KM12 colon = system: KM12 colon
SF-295 CNS = system: SF-295 CNS
SK-MEL-5 melanoma = system: SK-MEL-5 melanoma
MDA-MB-231 breast = system: MDA-MB-231 breast
A498 renal = system: A498 renal
SW-620 colon = system: SW-620 colon
COLO 205 colon = system: COLO 205 colon
HCC-2998 colon = system: HCC-2998 colon
K-562 leukemia = system: K-562 leukemia
HL-60(TB) leukemia = system: HL-60(TB) leukemia
OVCAR-4 ovarian = system: OVCAR-4 ovarian
ACHN renal = system: ACHN renal
MDA-N = system: MDA-N
T-47D breast = system: T-47D breast
SNB-75 CNS = system: SNB-75 CNS
CCRF-CEM leukemia = system: CCRF-CEM leukemia
EKVX NSCLC = system: EKVX NSCLC
BT-549 breast = system: BT-549 breast
OVCAR-8 ovarian = system: OVCAR-8 ovarian
SNB-19 CNS = system: SNB-19 CNS
DU-145 prostate = system: DU-145 prostate
HCT-116 colon = system: HCT-116 colon
SN12C renal = system: SN12C renal
RPMI-8226 leukemia = system: RPMI-8226 leukemia
HS 578T breast = system: HS 578T breast
SK-OV-3 ovarian = system: SK-OV-3 ovarian
PC-3 prostate = system: PC-3 prostate
TK-10 renal = system: TK-10 renal
HCT-15 colon = system: HCT-15 colon
MCF7 breast = system: MCF7 breast
NCI-H522 lung = system: NCI-H522 lung
UACC-257 melanoma = system: UACC-257 melanoma
HT29 colon = system: HT29 colon
LOX IMVI melanoma = system: LOX IMVI melanoma
NCI/ADR-RES ovarian = system: NCI/ADR-RES ovarian

`CCOC(=O)C(NC(=O)c1cccc(Cl)c1)(N1CCN(c2cc3c(cc2F)c(=O)c(C(=O)O)cn3C2CC2)CC1)C(F)(F)F` (configuration not stated) gave a TGI (SF-539 CNS) of 31.3 µM, a TGI (A549 NSCLC) of 50.5 µM and a TGI (U251 CNS) of 18.3 µM. The TGI (NCI-H226 lung) was 40.3 µM, the TGI (HOP-62 NSCLC) was 50 µM and the TGI (UO-31 renal) was 47.3 µM. It also gave a TGI (RXF 393 renal) of 34.4 µM, a TGI (OVCAR-5 ovarian) of 31.1 µM and a TGI (MOLT-4 leukemia) of 15.9 µM. It also gave a TGI (UACC-62 melanoma) of 42.2 µM, a TGI (IGROV1 ovarian) of 41.5 µM and a TGI (786-0 renal) of 28.3 µM. For the same compound, the TGI (MDA-MB-435) was 28.8 µM, the TGI (NCI-H460 lung) was 42.9 µM and the TGI (MALME-3M melanoma) was 32.2 µM. It also gave a TGI (SR leukemia) of 25.8 µM, a TGI (OVCAR-3 ovarian) of 29.5 µM and a TGI (SK-MEL-2 melanoma) of 29.8 µM. The TGI (CAKI-1 renal) was 36.2 µM, the TGI (HOP-92 NSCLC) was 34.6 µM and the TGI (NCI-H23 lung) was 37.1 µM. For the same compound, the TGI (M14 melanoma) was 33.2 µM, the TGI (SF-268 CNS) was 29.1 µM and the TGI (SK-MEL-28 melanoma) was 32.4 µM. It also gave a TGI (KM12 colon) of 23.9 µM, a TGI (SF-295 CNS) of 53.5 µM and a TGI (SK-MEL-5 melanoma) of 25.5 µM. It also gave a TGI (MDA-MB-231 breast) of 34.2 µM, a TGI (A498 renal) of 55.7 µM and a TGI (SW-620 colon) of 27.2 µM. For the same compound, the TGI (COLO 205 colon) was 30.2 µM, the TGI (HCC-2998 colon) was 34.8 µM and the TGI (K-562 leukemia) was 20.1 µM. For the same compound, the TGI (HL-60(TB) leukemia) was 6.64 µM, the TGI (OVCAR-4 ovarian) was 39 µM and the TGI (ACHN renal) was 31 µM. For the same compound, the TGI (MDA-N) was 29.4 µM, the TGI (T-47D breast) was 48.9 µM and the TGI (SNB-75 CNS) was 50.7 µM. It also gave a TGI (CCRF-CEM leukemia) of 9.78 µM, a TGI (EKVX NSCLC) of 55.2 µM and a TGI (BT-549 breast) of 38.4 µM. The TGI (OVCAR-8 ovarian) was 60.7 µM, the TGI (SNB-19 CNS) was 84.9 µM and the TGI (DU-145 prostate) was 70.5 µM. It also gave a TGI (HCT-116 colon) of 25.5 µM, a TGI (SN12C renal) of 93.9 µM and a TGI (RPMI-8226 leukemia) of 23.6 µM. For the same compound, the TGI (HS 578T breast) was 58 µM, the TGI (SK-OV-3 ovarian) was 66.5 µM and the TGI (PC-3 prostate) was 34.6 µM.

Work on `COCCOC1=C(Cl)C(=O)c2c(O)ccc(O)c2C1=O` yielded a TGI (SF-539 CNS) of 5.46 µM, a TGI (A549 NSCLC) of 28.5 µM and a TGI (TK-10 renal) of 3.24 µM. For the same compound, the TGI (U251 CNS) was 12.1 µM, the TGI (NCI-H226 lung) was 28.9 µM and the TGI (HOP-62 NSCLC) was 9.94 µM. For the same compound, the TGI (UO-31 renal) was 3.83 µM, the TGI (RXF 393 renal) was 1.7 µM and the TGI (OVCAR-5 ovarian) was 13.7 µM. The TGI (MOLT-4 leukemia) was 0.481 µM, the TGI (HCT-15 colon) was 3.32 µM and the TGI (UACC-62 melanoma) was 10.7 µM. It also gave a TGI (IGROV1 ovarian) of 6.27 µM, a TGI (786-0 renal) of 3.23 µM and a TGI (MCF7 breast) of 3.04 µM. The TGI (MDA-MB-435) was 2.23 µM, the TGI (NCI-H460 lung) was 17.2 µM and the TGI (MALME-3M melanoma) was 2.17 µM. The TGI (SR leukemia) was 3.19 µM, the TGI (OVCAR-3 ovarian) was 3.08 µM and the TGI (SK-MEL-2 melanoma) was 14.5 µM. The TGI (CAKI-1 renal) was 1.11 µM, the TGI (NCI-H522 lung) was 1.67 µM and the TGI (UACC-257 melanoma) was 4.85 µM. The TGI (HOP-92 NSCLC) was 2.2 µM, the TGI (NCI-H23 lung) was 9.54 µM and the TGI (M14 melanoma) was 3.22 µM. The TGI (SF-268 CNS) was 13 µM, the TGI (HT29 colon) was 7.7 µM and the TGI (SK-MEL-28 melanoma) was 5.07 µM. It also gave a TGI (KM12 colon) of 26.8 µM, a TGI (SF-295 CNS) of 35.1 µM and a TGI (SK-MEL-5 melanoma) of 5.15 µM. It also gave a TGI (MDA-MB-231 breast) of 3.2 µM, a TGI (A498 renal) of 22.2 µM and a TGI (SW-620 colon) of 1.4 µM. It also gave a TGI (LOX IMVI melanoma) of 3.28 µM, a TGI (COLO 205 colon) of 2.34 µM and a TGI (HCC-2998 colon) of 15.6 µM. For the same compound, the TGI (OVCAR-4 ovarian) was 4.34 µM, the TGI (ACHN renal) was 2.96 µM and the TGI (MDA-N) was 3.03 µM. For the same compound, the TGI (T-47D breast) was 6.61 µM, the TGI (SNB-75 CNS) was 13.9 µM and the TGI (EKVX NSCLC) was 11.5 µM. For the same compound, the TGI (BT-549 breast) was 5.44 µM, the TGI (OVCAR-8 ovarian) was 6.66 µM and the TGI (SNB-19 CNS) was 29.2 µM. It also gave a TGI (DU-145 prostate) of 13.2 µM, a TGI (NCI/ADR-RES ovarian) of 8.5 µM and a TGI (HCT-116 colon) of 2.6 µM. For the same compound, the TGI (SN12C renal) was 4.04 µM, the TGI (RPMI-8226 leukemia) was 1.75 µM and the TGI (HS 578T breast) was 8.34 µM. It also gave a TGI (SK-OV-3 ovarian) of 30.7 µM and a TGI (PC-3 prostate) of 13 µM.
